In patent US20060140857A1, “Method of the administration of drugs with binding affinity for plasma protein and preparation to be used in the method” (NIHON MEDI-PHYSICS CO., LTD., priority 1999, published 2006):

Columns and labels:
[1] = Biodistribution of 123I-IMP in rat with verapamil loading; conditions: rats, loaded with verapamil about 10 mg/kg
Procedure: The rats were decapitated at 2, 5, 10, 30 and 60 minutes after administration. Then the blood was sampled and the organs of interest were excised. After measured the weight of these specimens, the radioactivities of the blood and organs were measured. After half-life of the radioactivities were corrected, the accumulation rate (% dose/g of the tissue) was obtained.

[2] = Free fraction of 123I-IMP in the blood of rats with verapamil loading; type: in vivo, rat
Procedure: Under the same conditions as mentioned above concerning the constitution of control and testing group, timings of decapitation, and dose of drugs, administrations of the drugs and decapitations of rats were conducted, and 3-5 ml of blood per one rat was sampled.

[3] = system: human plasma protein; test: Displacement of 123I-IMP binding to human plasma protein; conditions: human serum, control without second drug

Structure (SMILES): CC(C)NC(C)Cc1ccc(I)cc1 (stereo not drawn) [123I-IMP, N-isopropyl-p-iodoamphetamine]
- Biodistribution of 123I-IMP, Lung ([1]; 2 Minutes): 9.234 ± 1.748 % Dose/g Tissue
- Biodistribution of 123I-IMP, Pancreas ([1]; 2 Minutes): 1.268 ± 0.375 % Dose/g Tissue
- Biodistribution of 123I-IMP, Spleen ([1]; 2 Minutes): 0.052 ± 0.025 % Dose/g Tissue
- Biodistribution of 123I-IMP, Stomach ([1]; 2 Minutes): 0.234 ± 0.111 % Dose/g Tissue
- Biodistribution of 123I-IMP, Blood ([1]; 5 Minutes): 0.228 ± 0.012 % Dose/g Tissue
- Biodistribution of 123I-IMP, Brain ([1]; 5 Minutes): 1.916 ± 0.131 % Dose/g Tissue
- Biodistribution of 123I-IMP, Heart ([1]; 5 Minutes): 2.260 ± 0.680 % Dose/g Tissue
- Biodistribution of 123I-IMP, Kidney ([1]; 5 Minutes): 1.278 ± 0.381 % Dose/g Tissue
- Biodistribution of 123I-IMP, Liver ([1]; 5 Minutes): 0.350 ± 0.130 % Dose/g Tissue
- Biodistribution of 123I-IMP, Lung ([1]; 5 Minutes): 8.377 ± 0.563 % Dose/g Tissue
- Biodistribution of 123I-IMP, Pancreas ([1]; 5 Minutes): 1.659 ± 0.496 % Dose/g Tissue
- Biodistribution of 123I-IMP, Spleen ([1]; 5 Minutes): 0.063 ± 0.250 % Dose/g Tissue
- Biodistribution of 123I-IMP, Stomach ([1]; 5 Minutes): 0.164 ± 0.078 % Dose/g Tissue
- Biodistribution of 123I-IMP, Blood ([1]; 10 Minutes): 0.139 ± 0.003 % Dose/g Tissue
- Biodistribution of 123I-IMP, Brain ([1]; 10 Minutes): 2.145 ± 0.410 % Dose/g Tissue
- Biodistribution of 123I-IMP, Heart ([1]; 10 Minutes): 1.247 ± 0.209 % Dose/g Tissue
- Biodistribution of 123I-IMP, Kidney ([1]; 10 Minutes): 1.766 ± 0.678 % Dose/g Tissue
- Biodistribution of 123I-IMP, Liver ([1]; 10 Minutes): 0.688 ± 0.237 % Dose/g Tissue
- Biodistribution of 123I-IMP, Lung ([1]; 10 Minutes): 6.947 ± 1.486 % Dose/g Tissue
- Biodistribution of 123I-IMP, Pancreas ([1]; 10 Minutes): 1.911 ± 0.685 % Dose/g Tissue
- Biodistribution of 123I-IMP, Spleen ([1]; 10 Minutes): 0.213 ± 0.118 % Dose/g Tissue
- Biodistribution of 123I-IMP, Stomach ([1]; 10 Minutes): 0.377 ± 0.013 % Dose/g Tissue
- Biodistribution of 123I-IMP, Blood ([1]; 30 Minutes): 0.098 ± 0.044 % Dose/g Tissue
- Biodistribution of 123I-IMP, Brain ([1]; 30 Minutes): 1.529 ± 0.811 % Dose/g Tissue
- Biodistribution of 123I-IMP, Heart ([1]; 30 Minutes): 0.471 ± 0.209 % Dose/g Tissue
- Biodistribution of 123I-IMP, Kidney ([1]; 30 Minutes): 1.231 ± 0.632 % Dose/g Tissue
- Biodistribution of 123I-IMP, Liver ([1]; 30 Minutes): 1.185 ± 0.751 % Dose/g Tissue
- Biodistribution of 123I-IMP, Lung ([1]; 30 Minutes): 3.890 ± 2.223 % Dose/g Tissue
- Biodistribution of 123I-IMP, Pancreas ([1]; 30 Minutes): 1.877 ± 0.886 % Dose/g Tissue
- Biodistribution of 123I-IMP, Spleen ([1]; 30 Minutes): 0.886 ± 0.319 % Dose/g Tissue
- Biodistribution of 123I-IMP, Stomach ([1]; 30 Minutes): 0.782 ± 0.621 % Dose/g Tissue
- Biodistribution of 123I-IMP, Blood ([1]; 60 Minutes): 0.110 ± 0.002 % Dose/g Tissue
- Biodistribution of 123I-IMP, Brain ([1]; 60 Minutes): 1.449 ± 0.281 % Dose/g Tissue
- Biodistribution of 123I-IMP, Heart ([1]; 60 Minutes): 0.456 ± 0.039 % Dose/g Tissue
- Biodistribution of 123I-IMP, Kidney ([1]; 60 Minutes): 1.242 ± 0.146 % Dose/g Tissue
- Biodistribution of 123I-IMP, Liver ([1]; 60 Minutes): 1.639 ± 0.051 % Dose/g Tissue
- Biodistribution of 123I-IMP, Lung ([1]; 60 Minutes): 4.133 ± 0.079 % Dose/g Tissue
- Biodistribution of 123I-IMP, Pancreas ([1]; 60 Minutes): 1.478 ± 0.161 % Dose/g Tissue
- Biodistribution of 123I-IMP, Spleen ([1]; 60 Minutes): 1.193 ± 0.129 % Dose/g Tissue
- Biodistribution of 123I-IMP, Stomach ([1]; 60 Minutes): 1.058 ± 0.126 % Dose/g Tissue
- Free fraction (%) of 123I-IMP in the blood of rats ([2]; control group, 2 Minutes): 56.75 ± 9.21%
- Free fraction (%) of 123I-IMP in the blood of rats ([2]; control group, 5 Minutes): 50.70 ± 10.37%
- Free fraction (%) of 123I-IMP in the blood of rats ([2]; control group, 10 Minutes): 45.91 ± 3.12%
- Free fraction (%) of 123I-IMP in the blood of rats ([2]; control group, 30 Minutes): 27.29 ± 4.85%
- Free fraction (%) of 123I-IMP in the blood of rats ([2]; control group, 60 Minutes): 16.77 ± 4.11%
- Free fraction (%) of 123I-IMP in the blood of rats ([2]; test group with verapamil loading, 2 Minutes): 52.40 ± 6.00%
- Free fraction (%) of 123I-IMP in the blood of rats ([2]; test group with verapamil loading, 5 Minutes): 56.52 ± 4.38%
- Free fraction (%) of 123I-IMP in the blood of rats ([2]; test group with verapamil loading, 10 Minutes): 66.86 ± 6.34%
- Free fraction (%) of 123I-IMP in the blood of rats ([2]; test group with verapamil loading, 30 Minutes): 38.03 ± 6.69%
- Free fraction (%) of 123I-IMP in the blood of rats ([2]; test group with verapamil loading, 60 Minutes): 31.86 ± 8.23%
- free of fraction of 123I-IMP (%) [3]: 29.29%
